Experimental data as given in patent US12441720B2, “Modulators of the integrated stress response pathway” (EVOTEC INTERNATIONAL GMBH, priority 2020, dated 2025).

Legend:
[1] = system: ATF4; test: HEK-ATF4 High Content Imaging assay (prevention of Tunicamycin induced ISR); type: cell-based; settings: Homo sapiens, wild-type HEK293 cells, 6 hrs incubation, ATF4 signal ratio nucleus/cytoplasm, read-out: Activity (IC50, HEK-ATF4 readout)
Procedure: Example compounds were tested in the HEK-ATF4 High Content Imaging assay to assess their pharmacological potency to prevent Tunicamycin induced ISR. Wild-type HEK293 cells were plated in 384-well imaging assay plates at a density of 12,000 cells per well in growth medium (containing DMEM/F12, 10% FBS, 2 mM L-Glutamine, 100 U/mL Penicillin—100 μg/mL Streptomycin) and incubated at 37° C., 5% CO2. 24-hrs later, the medium was changed to 50 μl assay medium per well (DMEM/F12, 0.3% FBS, 2 mM L-Glutamine, 100 U/mL Penicillin—100 μg/mL Streptomycin). Example compounds were serially diluted in dimethyl sulfoxide (DMSO), spotted into intermediate plates and prediluted with assay medium containing 3.3 μM Tunicamycin to give an 11-fold excess of final assay concentration. In addition to the example compound testing area, the plates also contained multiples of control wells for assay normalization purposes, wells containing Tunicamycin but no example compounds (High control), as well as wells containing neither example compound nor Tunicamycin (Low control). The assay was started by transferring 5 μl from the intermediate plate into the assay plates, followed by incubation for 6 hrs at 37° C., 5% CO2. Subsequently, cells were fixed (4% PFA in PBS, 20 min at room temperature) and submitted to indirect ATF4 immunofluorescence staining (primary antibody rabbit anti ATF4, clone D4B8, Cell Signaling Technologies; secondary antibody Alexa Fluor 488 goat anti-rabbit IgG (H+L), Thermofisher Scientific). Nuclei were stained using Hoechst dye (Thermofisher Scientific), and plates were imaged on an Opera Phenix High Content imaging platform equipped with 405 nm and 488 nm excitation. Finally, images were analyzed using script based algorithms. The main readout HEK-ATF4 monitored the ATF4 signal ratio between nucleus and cytoplasm. Tunicamycin induced an increase in the overall ATF4 ratio signal, which was prevented by ISR modulating example compounds. In addition, HEK-CellCount readout was derived from counting the number of stained nuclei corresponding to healthy cells. This readout served as an internal toxicity control.

[2] = target: T1, human ERG potassium channel (hERG) (Homo sapiens, UniProt Q12809); test: hERG tail current recording, Rapid ICE automated patch-clamp (QPatch HTX); type: cell-based; settings: recombinant HEK293 cell line stably transfected with hERG cDNA; test concentrations 0.3, 3 and 30 μM; read-out: hERG Activity (IC50, tail current inhibition)
T1 construct: expressed in transfected cells; host or cells: HEK293, stably transfected, tetracycline-inducible
T1 sequence (Q12809 whole entry): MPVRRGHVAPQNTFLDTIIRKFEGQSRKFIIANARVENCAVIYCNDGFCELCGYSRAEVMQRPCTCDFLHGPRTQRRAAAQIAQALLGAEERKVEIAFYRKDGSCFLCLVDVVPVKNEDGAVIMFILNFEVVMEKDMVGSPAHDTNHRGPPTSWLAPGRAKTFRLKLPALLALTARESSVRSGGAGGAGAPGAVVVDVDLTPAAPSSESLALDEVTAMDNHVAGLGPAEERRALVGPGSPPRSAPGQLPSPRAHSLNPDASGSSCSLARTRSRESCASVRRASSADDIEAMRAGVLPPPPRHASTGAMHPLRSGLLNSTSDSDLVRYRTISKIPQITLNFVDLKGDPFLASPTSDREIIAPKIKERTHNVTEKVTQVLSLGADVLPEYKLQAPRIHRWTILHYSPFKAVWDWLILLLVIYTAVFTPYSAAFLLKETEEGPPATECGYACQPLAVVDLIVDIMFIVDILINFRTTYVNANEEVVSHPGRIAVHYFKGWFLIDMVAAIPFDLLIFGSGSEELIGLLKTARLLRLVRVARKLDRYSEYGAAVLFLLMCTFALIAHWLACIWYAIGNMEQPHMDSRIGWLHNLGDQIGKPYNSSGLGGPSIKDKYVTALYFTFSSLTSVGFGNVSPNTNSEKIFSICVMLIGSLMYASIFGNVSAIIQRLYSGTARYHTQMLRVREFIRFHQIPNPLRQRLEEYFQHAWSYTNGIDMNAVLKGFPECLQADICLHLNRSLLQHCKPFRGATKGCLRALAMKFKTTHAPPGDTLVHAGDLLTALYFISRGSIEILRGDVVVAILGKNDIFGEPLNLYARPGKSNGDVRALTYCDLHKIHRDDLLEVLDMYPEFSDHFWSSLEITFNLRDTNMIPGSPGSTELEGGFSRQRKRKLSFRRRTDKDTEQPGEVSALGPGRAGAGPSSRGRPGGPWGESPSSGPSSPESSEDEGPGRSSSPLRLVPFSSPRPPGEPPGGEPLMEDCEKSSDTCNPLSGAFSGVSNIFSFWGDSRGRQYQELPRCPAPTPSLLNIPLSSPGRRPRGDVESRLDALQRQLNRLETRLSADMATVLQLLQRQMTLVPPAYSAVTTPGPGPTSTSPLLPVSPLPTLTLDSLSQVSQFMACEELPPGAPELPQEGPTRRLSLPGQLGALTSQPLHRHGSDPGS
Procedure: The potency of the example compounds in inhibiting human ERG potassium channel (hERG) tail current was assessed in a recombinant HEK293 cell line stably transfected with hERG cDNA under an inducible promoter, using Rapid ICE (rapid ion channel electrophysiology) assay. Rapid ICE is an automated patch-clamp assay utilizing the QPatch HTX system (Sophion Bioscience A/S). Briefly, inducible HEK hERG cells were cultivated in minimum essential medium supplemented with 10% FBS, 1% non-essential amino acids, 1% sodium pyruvate, 2 mM 1-glutamine, 15 μg/mL blasticidin, and 100 μg/mL hygromycin. hERG channel expression induction was obtained by adding 10 μg/mL tetracycline for 24, 48, or 72 h before recordings.
On the day of the experiment, cells were detached with TrypLE and prepared to be loaded on the instrument. Cells were resuspended in 7 mL of Serum-Free Media containing 25 mM Hepes and soybean trypsin inhibitor and immediately placed in the cell storage tank of the machine. The composition of the extracellular buffer was (mM): NaCl 137, KCl 4, CaCl2 1.8, MgCl2 1.0, d-glucose 10, N-2-hydroxyethylpiperazine-N′-2-ethanesulfonic acid (HEPES) 10, pH 7.4 with 1 M NaOH. The composition of the intracellular solution was (mM): KCl 130, MgCl2 1.0, ethylene glycol-bis(β-aminoethyl ether)-N,N,N′,N′-tetraacetic acid (EGTA) 5, MgATP 5, HEPES 10, pH 7.2 with 1 M KOH. The voltage protocol included the following steps: step from −80 to −50 mV for 200 ms, +20 mV for 4.8 s, step to −50 mV for 5 s, then step to the holding potential of […]. Example compounds were dissolved in DMSO and diluted in extracellular buffer to achieve final test concentrations (0.3, 3, and 30 μM) in 0.3% DMSO. The voltage protocol was run and recorded continuously during the experiment. The vehicle, corresponding to 0.3% DMSO in extracellular buffer was then applied for 3 min, followed by the example compound in triplicate. The standard combined exposure time was 5 min. The average of tail current amplitude values recorded from four sequential voltage pulses was used to calculate for each cell the effect of the example compound by calculating the residual current (% control) compared with vehicle pretreatment. Data were reported as % inhibition for each concentration tested, and IC50 values were estimated using QPatch software. At least two cells were tested, and even more if results diverged.

SMILES	IC50 [1] [µM]	IC50 [2] [µM]
O=C(COc1ccc(Cl)c(F)c1)N[C@H]1CO[C@H](c2nnc(-c3ccc(Cl)cc3)o2)OC1 [Example 1, 2-(4-chloro-3-fluorophenoxy)-N-[trans-2-[5-(4-chlorophenyl)-1,3,4-oxadiazol-2-yl]-1,3-dioxan-5-yl]acetamide]	0.001 to 0.5	–
O=C(COc1ccc(Cl)c(F)c1)N[C@H]1CO[C@H](c2nnc([C@H]3C[C@@H](OC(F)(F)F)C3)o2)OC1 [Example 2, 2-(4-chloro-3-fluorophenoxy)-N-[trans-2-{5-[cis-3-(trifluoromethoxy)cyclobutyl]-1,3,4-oxadiazol-2-yl}-1,3-dioxan-5-yl]acetamide]	0.001 to 0.5	> 5
O=C(COc1ccc(Cl)c(F)c1)N[C@H]1CO[C@@H](c2cn(-c3ccc(Cl)cc3)nn2)OC1 [Example 3, 2-(4-chloro-3-fluorophenoxy)-N-[cis-2-[1-(4-chlorophenyl)-1H-1,2,3-triazol-4-yl]-1,3-dioxan-5-yl]acetamide]	2 to 15	–
O=C(COc1ccc(Cl)c(F)c1)N[C@H]1CO[C@H](c2cn(-c3ccc(Cl)cc3)nn2)OC1 [Example 4, 2-(4-chloro-3-fluorophenoxy)-N-[trans-2-[1-(4-chlorophenyl)-1H-1,2,3-triazol-4-yl]-1,3-dioxan-5-yl]acetamide]	0.5 to 2	–
O=C(COc1ccc(Cl)c(F)c1)N[C@H]1CO[C@H](c2nnc(OCCCC(F)(F)F)o2)OC1 [Example 5, 2-(4-chloro-3-fluorophenoxy)-N-[trans-2-[5-(4,4,4-trifluorobutoxy)-1,3,4-oxadiazol-2-yl]-1,3-dioxan-5-yl]acetamide]	0.001 to 0.5	1 to 5
O=C(COc1ccc(Cl)c(F)c1)N[C@H]1CO[C@H](c2nnc(OCCOC(F)(F)F)o2)OC1 [Example 6, 2-(4-chloro-3-fluorophenoxy)-N-[trans-2-{5-[2-(trifluoromethoxy)ethoxy]-1,3,4-oxadiazol-2-yl}-1,3-dioxan-5-yl]acetamide]	0.001 to 0.5	> 5
O=C(COc1ccc(Cl)c(F)c1)N[C@H]1CO[C@H](c2nnc(N3CC(OC(F)(F)F)C3)o2)OC1 [Example 7, 2-(4-chloro-3-fluorophenoxy)-N-[trans-2-{5-[3-(trifluoromethoxy)azetidin-1-yl]-1,3,4-oxadiazol-2-yl}-1,3-dioxan-5-yl]acetamide]	0.001 to 0.5	> 5
O=C(COc1ccc(C(F)F)c(Cl)c1)N[C@H]1CO[C@H](c2nnc(N3CC(OC(F)(F)F)C3)o2)OC1 [Example 8, 2-[3-chloro-4-(difluoromethyl)phenoxy]-N-[trans-2-{5-[3-(trifluoromethoxy)azetidin-1-yl]-1,3,4-oxadiazol-2-yl}-1,3-dioxan-5-yl]acetamide]	0.001 to 0.5	> 5
O=C(COc1ccc(Cl)c(Cl)c1)N[C@H]1CO[C@H](c2nnc(OCCOC(F)(F)F)o2)OC1 [Example 9, 2-(3,4-dichlorophenoxy)-N-[trans-2-{5-[2-(trifluoromethoxy)ethoxy]-1,3,4-oxadiazol-2-yl}-1,3-dioxan-5-yl]acetamide]	0.001 to 0.5	> 5
O=C(COc1cnc(Cl)c(F)c1)N[C@H]1CO[C@H](c2nnc([C@H]3C[C@@H](OC(F)(F)F)C3)o2)OC1 [Example 10, 2-[(6-chloro-5-fluoro-3-pyridyl)oxy]-N-[trans-2-[5-[cis-3-(trifluoromethoxy)cyclobutyl]-1,3,4-oxadiazol-2-yl]-1,3-dioxan-5-yl]acetamide]	2 to 15	> 5
